Test results: patent publication US20240041042A1, “1-(PYRIDYL)-5-AZINYLPYRAZOLE DERIVATIVES, AND THEIR USE FOR CONTROL OF UNDESIRED PLANT GROWTH” (Bayer Aktiengesellschaft, priority 2020, published 2024)
Read-outs that look alike come from different tables or passages of the source.

Columns and labels:
Assay type in all cases: in vivo
[1] = system: Matricaria inodora (MATIN); experiment: Post-emergence herbicidal action against MATIN
How it was run: (§1)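 Post-emergence greenhouse spray, one-leaf stage, 600 l/ha water plus 0.5% additive; WP or EC formulations; application rates 320 g/ha or lower. Visual % damage vs untreated controls at ~3 weeks.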

[2] = system: Echinochloa crus-galli (ECHCG); experiment: Post-emergence herbicidal action against ECHCG
How it was run: as §1

Viola tricolor (VIOTR) = experiment: Pre-emergence herbicidal action against VIOTR
How it was run: (§2)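 Herbicide applied to soil before seedling emergence, at 600 l/ha spray volume with 0.5% additive and rates up to 320 g/ha. Evaluation: visual percentage effect, about 3 weeks later, greenhouse-grown pots compared with untreated ones.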

Avena fatua (AVEFA) = experiment: Post-emergence herbicidal action against AVEFA; conditions: visual rating about 3 weeks after treatment
How it was run: as §1

[3] = system: Digitaria sanguinalis (DIGSA); experiment: Post-emergence herbicidal action against DIGSA; conditions: visual rating about 3 weeks after treatment
How it was run: as §1

[4] = system: Digitaria sanguinalis (DIGSA); experiment: Pre-emergence herbicidal action against DIGSA
How it was run: as §2

[5] = system: Triticum aestivum (TRZAS); conditions: crop plant compatibility, 80 g/ha, effect vs untreated controls
How it was run: (§3)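 Percent effect on the crop was judged by eye against untreated controls, where 0% means like control and 100% means dead plants. Plants had been sprayed post-emergence at the one-leaf stage and then kept under optimum greenhouse conditions for about 3 weeks.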

Oryza sativa (ORYSA) = conditions: crop plant compatibility, effect in comparison to untreated controls
How it was run: as §3

Zea mays (ZEAMX) = conditions: crop plant compatibility, 80 g/ha, effect vs untreated controls
How it was run: as §3

[6] = 80 g/ha, visual scoring after about 3 weeks vs untreated controls

Row | Compound | Post-emergence action against MATIN in % ([1]; dosage 80 g/ha) [%] | Post-emergence action against MATIN in % ([1]; dosage 320 g/ha) [%] | Post-emergence action against ECHCG in % ([2]; dosage 80 g/ha) [%] | Post-emergence action against ECHCG in % ([2]; dosage 320 g/ha) [%] | Pre-emergence action against VIOTR in % (Viola tricolor (VIOTR); 320 g/ha, Viola tricolor) [%] | Pre-emergence action against VIOTR in % (Viola tricolor (VIOTR); dosage 80 g/ha) [%] | Post-emergence action against AVEFA in % (Avena fatua (AVEFA); 320 g/ha) [%] | Post-emergence action against AVEFA in % (Avena fatua (AVEFA); 80 g/ha) [%] | Post-emergence action against DIGSA in % ([3]; 80 g/ha) [%] | Post-emergence action against DIGSA in % ([3]; 320 g/ha) [%] | Pre-emergence action against DIGSA in % [4, 6] [%] | Pre-emergence action against DIGSA in % ([4]; dosage 320 g/ha) [%] | Post-emergence action against TRZAS in % [5] [%] | Post-emergence action against ORYSA in % (Oryza sativa (ORYSA); 80 g/ha) [%] | Post-emergence action against ORYSA in % (Oryza sativa (ORYSA); 320 g/ha) [%] | Post-emergence action against ZEAMX in % (Zea mays (ZEAMX)) [%]
1 | CCOC(=O)COc1nn(-c2ccccn2)c(-c2ccc(F)nc2)c1Br [Example I-02] | 80 | 80 | 90 | 90 | 100 | 100 | 80 |  |  |  |  |  |  |  |  | 
2 | COCCOC(=O)COc1nn(-c2ccccn2)c(-c2ccc(F)nc2)c1Br [Example I-96] |  | 80 | 90 | 90 | 90 |  | 90 | 80 |  |  |  |  |  |  |  | 
3 | COC(=O)COc1nn(-c2ncccc2F)c(-c2cncc(F)c2)c1C1CC1 [Example I-167] |  |  | 80 | 80 | 100 | 100 | 90 | 80 | 90 | 90 | 100 | 100 |  |  |  | 
4 | CCOC(=O)COc1nn(-c2ncccc2F)c(-c2cncc(F)c2)c1C1CC1 [Example I-174] |  |  | 80 | 80 | 100 | 100 | 90 | 80 | 90 | 90 | 100 | 100 |  |  |  | 
5 | CCOC(=O)[C@@H](C)Oc1nn(-c2ccccn2)c(-c2cncc(F)c2)c1Cl [Example I-184] |  | 80 | 90 | 90 | 100 | 100 | 90 | 80 |  |  |  |  |  |  |  | 
6 | COC(=O)CNC(=O)[C@@H](C)Oc1nn(-c2ccccn2)c(-c2cncc(F)c2)c1Br [Example I-187] |  | 80 | 80 | 80 | 100 | 100 | 80 |  |  |  |  |  | 20 | 10 | 20 | 
7 | COC(=O)C(C)COC(=O)[C@@H](C)Oc1nn(-c2ccccn2)c(-c2cncc(F)c2)c1Br (some centres unmarked) [Example I-188] |  | 80 | 80 | 90 | 100 | 100 | 80 | 80 |  |  |  |  |  | 20 |  | 
8 | COC(=O)[C@@H](C)Oc1nn(-c2ccccn2)c(-c2cncc(F)c2)c1Cl [Example I-189] | 90 | 90 | 90 | 90 | 100 | 100 | 90 | 90 |  |  |  |  |  |  |  | 
9 | COC(=O)C(C)NC(=O)[C@@H](C)Oc1nn(-c2ccccn2)c(-c2cncc(F)c2)c1Br (some centres unmarked) [Example I-190] |  | 80 | 80 | 80 | 100 | 100 | 80 |  |  |  |  |  |  | 20 |  | 
10 | CCOC(=O)COc1nn(-c2nc(F)ccc2F)c(-c2cncc(F)c2)c1Br [Example I-193] |  | 80 | 90 | 90 | 100 | 100 | 90 | 80 |  |  |  |  |  | 10 |  | 
11 | COC(=O)CCOC(=O)[C@@H](C)Oc1nn(-c2ccccn2)c(-c2cncc(F)c2)c1Cl [Example I-196] |  | 80 | 80 | 80 | 100 | 90 | 90 | 80 |  |  |  |  |  |  |  | 
12 | COC(=O)C(C)COC(=O)[C@@H](C)Oc1nn(-c2ccccn2)c(-c2cncc(F)c2)c1Cl (some centres unmarked) [Example I-198] |  | 80 | 80 | 80 | 100 | 90 | 80 | 80 |  |  |  |  |  |  |  | 
13 | C[C@@H](Oc1nn(-c2ccccn2)c(-c2cncc(F)c2)c1Cl)C(=O)O [Example I-218] |  | 80 | 80 | 90 | 100 | 100 | 90 | 80 |  |  |  |  |  |  |  | 
14 | COC(=O)C(C)COC(=O)C(C)Oc1nn(-c2ccccn2)c(-c2ccc(F)nc2)c1Cl (centres unmarked) [Example I-291] |  |  | 80 | 80 | 100 | 90 | 80 | 80 |  |  | 100 | 100 |  | 0 |  | 
15 | COC(=O)[C@@H](C)Oc1nn(-c2ncccc2F)c(-c2ccc(F)nc2)c1C(F)(F)F [Example I-331] | 80 | 80 | 90 | 90 | 100 | 100 | 90 | 90 |  |  |  |  |  |  |  | 
16 | COC(=O)[C@@H](C)Oc1nn(-c2ncccc2F)c(-c2ccc(F)nc2)c1I [Example I-341] |  | 90 | 100 | 100 | 100 | 100 | 80 | 80 |  |  |  |  |  | 0 |  | 0
17 | C[C@@H](Oc1nn(-c2ncccc2F)c(-c2ccc(F)nc2)c1C1CC1)C(=O)O [Example I-342] |  | 100 | 90 | 90 | 100 | 100 | 100 | 90 |  |  |  |  |  |  |  | 
18 | C[C@@H](Oc1nn(-c2ncccc2F)c(-c2ccc(F)nc2)c1I)C(=O)O [Example I-343] |  | 80 | 90 | 90 | 100 | 100 | 80 | 80 |  |  |  |  |  | 10 |  | 
19 | CCOC(=O)[C@@H](C)Oc1nn(-c2ncccc2F)c(-c2ccc(F)nc2)c1C1CC1 [Example I-375] |  | 80 | 90 | 90 | 100 | 100 | 90 | 90 |  |  |  |  |  |  |  | 
